Results on 14 compounds are retold here after EP2272817A1, “PAI-1 INHIBITOR” (Institute of Medicinal Molecular Design, Inc., priority 2008, dated 2009).

Structures are written as SMILES. Like-named read-outs stand apart in the source and are kept apart here.

Assay [1] deals with T1, recombinant human PAI-1 (Homo sapiens, UniProt P05121). The assay is described as follows: biochemical. The conditions noted are these: for inhibition at 25 µM: read-out: Inhibition Rate of PAI-1 Activity (%), Compound Concentration 25µM.
For a further assay, the target named is T2, recombinant rat PAI-1 (Rattus norvegicus, UniProt P20961).
T2 sequence (P20961 24-402): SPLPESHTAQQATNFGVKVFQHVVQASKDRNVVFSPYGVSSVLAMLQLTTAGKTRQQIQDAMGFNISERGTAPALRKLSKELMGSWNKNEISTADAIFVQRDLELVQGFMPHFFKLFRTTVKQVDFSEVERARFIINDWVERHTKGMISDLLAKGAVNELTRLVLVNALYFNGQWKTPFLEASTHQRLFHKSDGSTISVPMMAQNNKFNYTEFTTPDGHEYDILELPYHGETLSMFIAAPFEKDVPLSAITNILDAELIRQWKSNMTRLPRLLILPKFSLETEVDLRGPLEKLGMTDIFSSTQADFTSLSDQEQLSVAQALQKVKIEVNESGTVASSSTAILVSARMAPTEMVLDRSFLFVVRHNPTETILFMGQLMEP
Put plainly: biochemical. The conditions noted are these: read-out: Inhibition Rate of PAI-1 Activity (%).

The target of assay [2] is T1, recombinant human PAI-1. The assay is described as follows: Test Example 2: Human PAI-1 Inhibitory Activity (pH 7.4 HEPES buffer, 10 minutes incubation with two-chain tPA). It counts as biochemical. Also noted: purchased Molecular Innovations, Inc. Particulars: read-out: Inhibition Rate of PAI-1 Activity (%). How it is done: 0.1 M HEPES, 0.1 M NaCl. 1 mM EDTA. 0.1 % Polyethylene glycol 8,000 (Hampton Research Corporation),
2 mM Dimethyldecylphoshine oxide [Apo-10] (Fluka Corporation)

[3] abbreviates: read-out: Inhibition Rate of PAI-1 Activity (%), Compound Concentration 5µM.
Setting [4] is: read-out: Inhibition Rate of PAI-1 Activity (%), Compound Concentration 10µM.
The mark [5] stands for this setting: read-out: Inhibition Rate of PAI-1 Activity (%).

T1 sequence (P05121 24-402): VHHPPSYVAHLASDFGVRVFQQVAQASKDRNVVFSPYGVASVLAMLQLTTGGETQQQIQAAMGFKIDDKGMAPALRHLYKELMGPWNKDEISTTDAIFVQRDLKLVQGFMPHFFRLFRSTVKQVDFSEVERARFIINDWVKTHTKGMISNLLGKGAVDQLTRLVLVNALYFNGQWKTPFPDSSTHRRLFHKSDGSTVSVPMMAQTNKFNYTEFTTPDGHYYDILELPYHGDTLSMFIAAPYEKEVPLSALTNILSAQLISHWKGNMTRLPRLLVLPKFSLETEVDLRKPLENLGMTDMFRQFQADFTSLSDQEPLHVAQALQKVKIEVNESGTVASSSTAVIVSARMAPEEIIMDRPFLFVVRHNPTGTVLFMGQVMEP

Regarding `CC(C)(C)c1ccc(COc2ccc(-c3ccc(OC(F)(F)F)cc3)cc2N(Cc2ccccc2)C(=O)C(=O)O)cc1` [Compound 179], the inhibition at 5 µM at recombinant human PAI-1 [1] (setting [3]) stood at 64%. For the same compound, the inhibition at 10 µM at recombinant human PAI-1 [1] (setting [4]) was 91%. Further, on recombinant rat PAI-1, the inhibition at 0.3 µM turned out to be 7%, the inhibition at 1 µM was 38%, the inhibition at 3 µM is > 99% and the inhibition at 10 µM was > 99%. At recombinant human PAI-1 [2], the inhibition at 0.1 µM came out at 1%, the inhibition at 0.3 µM stood at 19%, the inhibition at 1 µM was 68% and the inhibition at 3 µM was > 99%.

With `CCCOc1ccc(-c2ccc(OC(F)(F)F)cc2)cc1N(Cc1ccc(C(C)(C)C)cc1)C(=O)C(=O)O` [Compound 188], the inhibition at 5 µM on recombinant human PAI-1 [1] (setting [3]) is 73%. Besides, on recombinant human PAI-1 [1] (setting [4]), the inhibition at 10 µM is 91%. Further, at recombinant human PAI-1 [1], the inhibition at 25 µM came out at 91%. In addition, at recombinant rat PAI-1, the inhibition at 0.3 µM came to 0%, the inhibition at 1 µM amounted to 14%, the inhibition at 3 µM came out at 84% and the inhibition at 10 µM is > 99%. Besides, on recombinant human PAI-1 [2], the inhibition at 0.1 µM turned out to be 0%, the inhibition at 0.3 µM came to 0%, the inhibition at 1 µM was found to be 33% and the inhibition at 3 µM worked out at 97%.

For the compound `CC(C)(C)c1ccc(CN(C(=O)C(=O)O)c2ccc(Cl)cc2-c2ccc(OC(F)(F)F)cc2)cc1` [Compound 192], at recombinant human PAI-1 [1] (setting [3]), the inhibition at 5 µM was 80%. Moreover, the inhibition at 10 µM on recombinant human PAI-1 [1] (setting [4]) came out at 95%. For the same compound, the inhibition at 25 µM on recombinant human PAI-1 [1] came out at 94%. At recombinant rat PAI-1, the inhibition at 0.3 µM came to 0%, the inhibition at 1 µM turned out to be 8%, the inhibition at 3 µM turned out to be 76% and the inhibition at 10 µM came to 96%. Besides, on recombinant human PAI-1 [2], the inhibition at 0.1 µM was 0%, the inhibition at 0.3 µM came out at 1%, the inhibition at 1 µM stood at 35% and the inhibition at 3 µM was > 99%.

On to `CCCCOc1ccc(N(Cc2ccc(C(C)(C)C)cc2)C(=O)C(=O)O)cc1-c1ccc(OC(F)(F)F)cc1` [Compound 193], for which the inhibition at 5 µM on recombinant human PAI-1 [1] (setting [3]) is 81%. The inhibition at 10 µM at recombinant human PAI-1 [1] (setting [4]) was 89%. Also, on recombinant rat PAI-1, the inhibition at 0.3 µM worked out at 2%, the inhibition at 1 µM stood at 26%, the inhibition at 3 µM stood at 81% and the inhibition at 10 µM was found to be 70%. At recombinant human PAI-1 [2], the inhibition at 0.1 µM worked out at 2%, the inhibition at 0.3 µM worked out at 5%, the inhibition at 1 µM amounted to 34% and the inhibition at 3 µM is > 99%.

As for `CC(C)Oc1ccc(N(Cc2ccc(C(C)(C)C)cc2)C(=O)C(=O)O)cc1-c1ccc(OC(F)(F)F)cc1` [Compound 211], at recombinant human PAI-1 [1] (setting [5]), the inhibition at 5 µM is 87% and the inhibition at 10 µM came out at 96%. On recombinant rat PAI-1, the inhibition at 0.3 µM is 4%, the inhibition at 1 µM came out at 17%, the inhibition at 3 µM is 78% and the inhibition at 10 µM was 87%. At recombinant human PAI-1 [2], the inhibition at 0.1 µM turned out to be 9%, the inhibition at 0.3 µM is 16%, the inhibition at 1 µM was 43% and the inhibition at 3 µM was determined as 96%.

As for `CC(C)(C)c1ccc(CN(C(=O)C(=O)O)c2ccc(OCc3ccccc3)c(-c3ccc(OC(F)(F)F)cc3)c2)cc1` [Compound 212], on recombinant human PAI-1 [1] (setting [5]), the inhibition at 5 µM was found to be 78% and the inhibition at 10 µM was 95%. For the same compound, at recombinant rat PAI-1, the inhibition at 0.3 µM was 8%, the inhibition at 1 µM was determined as 40%, the inhibition at 3 µM came out at 73% and the inhibition at 10 µM is 67%. Besides, at recombinant human PAI-1 [2], the inhibition at 0.1 µM turned out to be 5%, the inhibition at 0.3 µM amounted to 15%, the inhibition at 1 µM came out at 64% and the inhibition at 3 µM came out at 98%.

Turning to `CCN(CC)c1ccc(N(Cc2ccc(C(C)(C)C)cc2)C(=O)C(=O)O)cc1-c1ccc(OC(F)(F)F)cc1` [Compound 213], at recombinant human PAI-1 [1] (setting [5]), the inhibition at 5 µM was 93% and the inhibition at 10 µM worked out at 84%. For the same compound, at recombinant rat PAI-1, the inhibition at 0.3 µM was determined as 8%, the inhibition at 1 µM is 26%, the inhibition at 3 µM worked out at 90% and the inhibition at 10 µM was 78%. Also, on recombinant human PAI-1 [2], the inhibition at 0.1 µM came to 0%, the inhibition at 0.3 µM came out at 10%, the inhibition at 1 µM is 48% and the inhibition at 3 µM stood at 98%.

With `CN(C)c1ccc(N(Cc2ccc(C(C)(C)C)cc2)C(=O)C(=O)O)cc1-c1ccc(OC(F)(F)F)cc1` [Compound 214], at recombinant human PAI-1 [1] (setting [5]), the inhibition at 5 µM was found to be 87% and the inhibition at 10 µM was 93%. Moreover, at recombinant rat PAI-1, the inhibition at 0.3 µM amounted to 0%, the inhibition at 1 µM amounted to 8%, the inhibition at 3 µM amounted to 77% and the inhibition at 10 µM is 97%. Besides, at recombinant human PAI-1 [2], the inhibition at 0.1 µM was found to be 4%, the inhibition at 0.3 µM came to 2%, the inhibition at 1 µM worked out at 40% and the inhibition at 3 µM was found to be 96%.

Regarding `Cc1cc(N(C)C)c(-c2ccc(OC(F)(F)F)cc2)cc1N(Cc1ccc(C(C)(C)C)cc1)C(=O)C(=O)O` [Compound 215], at recombinant human PAI-1 [1] (setting [5]), the inhibition at 5 µM is 90% and the inhibition at 10 µM amounted to 92%. In addition, on recombinant rat PAI-1, the inhibition at 0.3 µM was determined as 2%, the inhibition at 1 µM was 16%, the inhibition at 3 µM came out at 84% and the inhibition at 10 µM was found to be 97%. Further, on recombinant human PAI-1 [2], the inhibition at 0.1 µM was 7%, the inhibition at 0.3 µM came to 18%, the inhibition at 1 µM was found to be 54% and the inhibition at 3 µM was determined as 95%.

Consider `CC(C)(C)c1ccc(C(c2ccccc2)N(C(=O)C(=O)O)c2ccc(-c3ccc(OC(F)(F)F)cc3)cc2)cc1` (stereo not drawn) [Compound 222], for which the inhibition at 5 µM on recombinant human PAI-1 [1] (setting [3]) turned out to be 74%. The inhibition at 10 µM at recombinant human PAI-1 [1] (setting [4]) came to 91%. Also, on recombinant rat PAI-1, the inhibition at 0.3 µM worked out at 3%, the inhibition at 1 µM was 32% and the inhibition at 3 µM is 91%. Also, on recombinant human PAI-1 [2], the inhibition at 0.1 µM turned out to be 0%, the inhibition at 0.3 µM is 3%, the inhibition at 1 µM was determined as 45% and the inhibition at 3 µM was > 99%.

As to `CCCCOc1ccc(N(CCCCc2ccccc2)C(=O)C(=O)O)cc1-c1ccc(OC(F)(F)F)cc1` [Compound 227], at recombinant human PAI-1 [1] (setting [5]), the inhibition at 5 µM stood at 63% and the inhibition at 10 µM came out at 90%. Moreover, at recombinant rat PAI-1, the inhibition at 0.3 µM was 0%, the inhibition at 1 µM came out at 14%, the inhibition at 3 µM came to 77% and the inhibition at 10 µM was 95%. Further, on recombinant human PAI-1 [2], the inhibition at 0.1 µM amounted to 0%, the inhibition at 0.3 µM came to 7%, the inhibition at 1 µM worked out at 41% and the inhibition at 3 µM is 98%.

Take `CCC(CC)Oc1ccc(N(CCCc2ccccc2)C(=O)C(=O)O)cc1-c1ccc(OC(F)(F)F)cc1` [Compound 230]: the inhibition at 5 µM on recombinant human PAI-1 [1] (setting [3]) amounted to 75%. Moreover, the inhibition at 10 µM at recombinant human PAI-1 [1] (setting [4]) was determined as 95%. Further, the inhibition at 25 µM on recombinant human PAI-1 [1] was 92%. At recombinant rat PAI-1, the inhibition at 0.3 µM stood at 0%, the inhibition at 1 µM amounted to 13%, the inhibition at 3 µM came out at 83% and the inhibition at 10 µM came out at 94%. Moreover, at recombinant human PAI-1 [2], the inhibition at 0.1 µM amounted to 0%, the inhibition at 0.3 µM is 8%, the inhibition at 1 µM stood at 27% and the inhibition at 3 µM turned out to be 96%.

`CCCCOc1ccc(-c2ccc(OC(F)(F)F)cc2)cc1N(CCCCc1ccccc1)C(=O)C(=O)O` [Compound 231]: the inhibition at 5 µM at recombinant human PAI-1 [1] (setting [3]) was determined as 81%. Further, at recombinant human PAI-1 [1] (setting [4]), the inhibition at 10 µM is 97%. The inhibition at 25 µM at recombinant human PAI-1 [1] came to 94%. Further, at recombinant rat PAI-1, the inhibition at 0.3 µM was 3%, the inhibition at 1 µM came to 18%, the inhibition at 3 µM was 89% and the inhibition at 10 µM is > 99%. Also, on recombinant human PAI-1 [2], the inhibition at 0.1 µM came out at 0%, the inhibition at 0.3 µM amounted to 6%, the inhibition at 1 µM amounted to 34% and the inhibition at 3 µM turned out to be 98%.

Turning to `CCN(CC)c1ccc(N(CCCc2ccccc2)C(=O)C(=O)O)c(-c2ccc(OC(F)(F)F)cc2)c1` [Compound 238], the inhibition at 5 µM at recombinant human PAI-1 [1] (setting [3]) is 76%. Also, the inhibition at 10 µM on recombinant human PAI-1 [1] (setting [4]) was 95%. Also, the inhibition at 25 µM on recombinant human PAI-1 [1] amounted to 93%. Besides, on recombinant rat PAI-1, the inhibition at 0.3 µM was 0%, the inhibition at 1 µM stood at 8%, the inhibition at 3 µM was 46% and the inhibition at 10 µM turned out to be 98%. For the same compound, on recombinant human PAI-1 [2], the inhibition at 0.1 µM was determined as 0%, the inhibition at 0.3 µM stood at 0%, the inhibition at 1 µM came to 21% and the inhibition at 3 µM was 87%.
